The values that follow are results of earlier work, collected in patent US7081474B2, “Drugs to improve synaptic transmission” (priority 1994, dated 2006).

In data set [1] the test system is slices of rat hippocampus. Conditions: cited from earlier work.
The test system of data set [2] is experimental animals. The note with it: cited from earlier work.
Data set [3] deals with LTP in hippocampus (CA1 field, dentate gyrus). Conditions: cited from earlier work.
For data set [4], the system named is rats. Conditions: infused into lateral ventricles; cited from earlier work.

Where two headings read alike, the source gives them in different places. No end group written: not given here.

`N[C@@]1(C(=O)O)CC[C@@H](C(=O)O)C1` [1S,3R-ACPD, aminocyclopentane-1S,3R-decarboxylate]: the “effect on synaptic responses” value in data set [1] (brief application in vitro) was “long lasting potentiation”. In data set [2] (administered directly into the brain), the deleterious effects entry is “seizures and convulsions”.
Regarding `NC(CCCP(=O)(O)O)C(=O)O` (stereo not shown) [APV, 2-amino-5-phosphonopentanoate], the “effect on LTP induction” value in data set [3] (CA1 field and dentate gyrus) is “prevent LTP from taking place”. In data set [3], the “effect on LTP already established” value is given as “no effect”. Further, the “learning of the task” value in data set [4] was “prevented from learning the task”.
In the case of `O=C(O)CN(CCN(CC(=O)O)CC(=O)O)CC(=O)O` [EDTA], the “induction of LTP” value in data set [3] (intracellular injection) was “blocked”.
`CC(=O)N[C@@H](CC(C)C)C(=O)N[C@@H](CC(C)C)C(=O)N[C@H](C=O)CCCNC(=N)N` [leupeptin]: the “LTP on electrical stimulation of the hippocampus” value in data set [3] (infusion into lateral ventricles of rats) is on record as “no longer produces LTP”.
For the compound `CC[N+](CC)(CC)CC` [tetraethylammonium], the “effect on synaptic responses” value in data set [1] is reported as “long lasting potentiation”.
As to “mast-cell-degranulating peptide: K+ channel blocker (IKCNCKRHVIKPHICRKICGKN; ends and bridges not checked; cysteine pairing not given here; UniProt P01499 28-49, looked up)”, the “effect on synaptic responses” value in data set [1] is “long lasting potentiation”. In data set [2] (in vivo), the deleterious effects result is “seizures and convulsions”.
